Results: publication PMC9019507, “OAT10/SLC22A13 Acts as a Renal Urate Re-Absorber: Clinico-Genetic and Functional Analyses With Pharmacological Impacts” (Frontiers in Pharmacology, 2022)

Experiments:
OAT10/SLC22A13 [1] = biological target: T1, OAT10/SLC22A13 (Homo sapiens, UniProt Q9Y226); assay: inhibition of [[…]-14C]-urate uptake in OAT10-expressing […] cells; type: cell-based
URAT1/SLC22A12 [2] = biological target: T2, URAT1/SLC22A12 (Homo sapiens, UniProt Q96S37); assay: inhibition of [[…]-14C]-urate uptake in URAT1-expressing […] cells; type: cell-based
T2 construct: full-length human URAT1 wild-type, EGFP-fused (pEGFP-C1)
T2 sequence (Q96S37 1-553): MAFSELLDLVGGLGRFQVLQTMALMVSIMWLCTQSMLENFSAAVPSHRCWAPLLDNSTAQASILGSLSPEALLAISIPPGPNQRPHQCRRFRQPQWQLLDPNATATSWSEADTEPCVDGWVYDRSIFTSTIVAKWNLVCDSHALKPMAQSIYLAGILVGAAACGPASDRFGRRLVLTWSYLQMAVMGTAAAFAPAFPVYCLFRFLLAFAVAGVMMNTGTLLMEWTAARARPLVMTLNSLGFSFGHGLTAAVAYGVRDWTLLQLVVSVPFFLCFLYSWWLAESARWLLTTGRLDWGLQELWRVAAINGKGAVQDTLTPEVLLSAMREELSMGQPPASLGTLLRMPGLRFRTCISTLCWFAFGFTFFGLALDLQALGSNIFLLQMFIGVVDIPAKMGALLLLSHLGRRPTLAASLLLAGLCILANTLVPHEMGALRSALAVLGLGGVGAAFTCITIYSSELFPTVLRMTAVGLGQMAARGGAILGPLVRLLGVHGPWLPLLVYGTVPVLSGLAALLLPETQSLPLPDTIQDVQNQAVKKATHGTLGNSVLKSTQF

OAT10/SLC22A13 [3] = biological target: T1, OAT10/SLC22A13; assay: concentration-dependent inhibition of [[…]-14C]-urate uptake in OAT10-expressing […] cells; type: cell-based
URAT1/SLC22A12 [4] = biological target: T2, URAT1/SLC22A12; assay: inhibition of [[…]-14C]-urate uptake in URAT1-expressing […] cells ([…]); type: cell-based
URAT1/SLC22A12 [5] = biological target: T2, URAT1/SLC22A12; assay: cell-based; parameters: species or system 293A; inhibition of [8-14C]-urate uptake by URAT1-expressing 293A cells, concentration-response
Description: Transiently URAT1-expressing 293A cells were subjected to a cell-based urate transport assay, 48 h after transfection. As a transport buffer, Ringer solution, which contains Cl−, or Cl−-free Hanks’ Balanced Salt Solution (HBSS) containing 10 μM [8-14C]-urate was used. […] Data are expressed as the mean ± SD; n = 4.

OAT10/SLC22A13 [6] = biological target: T1, OAT10/SLC22A13; assay: cell-based; parameters: full-length human OAT10 wild-type, EGFP-fused (pEGFP-N1); species or system 293A
Description: Calculation of the Half-Maximal Inhibitory Concentration Values  FIGURE 5 Effects of urate-lowering drugs and their reactive metabolites on the urate transport activity of OAT10. (A) OAT10-mediated urate transport activities in the presence or absence of urate-lowering drugs, including their reactive metabolites, at 100 μM or experimentally maximum concentrations (Table 2). AP, allopurinol; OP, oxypurinol; FEB, febuxostat; TOP, topiroxostat; BBR, benzbromarone; 6-OH BBR, 6-hydroxybenzbromarone; DU, dotinurad; LU, lesinurad; PB, probenecid; FF, fenofibrate; LOS, losartan. (B) Comparison of the effects of each compound (10 μM) on the urate transport activities of URAT1 and OAT10. Values are shown as % of vehicle control (only 0.1% dimethyl sulfoxide); data are expressed as the mean ± SD; n = 3–4 (A,B). ^†† p < 0.01 (two-sided t-test). […] The urate transport activities were measured in the presence of each compound at indicated concentrations for 1 min.

T1 sequence (Q9Y226 whole entry): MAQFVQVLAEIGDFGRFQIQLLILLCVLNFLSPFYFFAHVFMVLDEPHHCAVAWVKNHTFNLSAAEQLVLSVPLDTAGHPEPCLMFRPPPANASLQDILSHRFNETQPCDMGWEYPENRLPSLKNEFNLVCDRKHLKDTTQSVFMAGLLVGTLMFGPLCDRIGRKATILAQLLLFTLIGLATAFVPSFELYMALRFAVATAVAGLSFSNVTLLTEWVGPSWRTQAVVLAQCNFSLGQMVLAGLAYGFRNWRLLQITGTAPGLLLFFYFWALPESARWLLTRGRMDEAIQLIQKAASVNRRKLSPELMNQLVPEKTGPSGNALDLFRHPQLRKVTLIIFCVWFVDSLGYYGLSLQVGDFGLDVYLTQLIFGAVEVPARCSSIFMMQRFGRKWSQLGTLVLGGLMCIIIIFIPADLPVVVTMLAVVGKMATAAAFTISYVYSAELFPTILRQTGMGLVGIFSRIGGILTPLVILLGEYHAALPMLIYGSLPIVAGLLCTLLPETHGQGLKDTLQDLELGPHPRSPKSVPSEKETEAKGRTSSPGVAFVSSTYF

Structure (SMILES)	IC50 (OAT10/SLC22A13 [1]) [µM]	IC50 (URAT1/SLC22A12 [2]) [µM]	IC50 (OAT10/SLC22A13 [3])	inhibition of [8-14C]-urate uptake in URAT1-expressing 293A cells (10 μM) (URAT1/SLC22A12 [4])	IC50 (URAT1/SLC22A12 [5]) [µM]	IC50 (OAT10/SLC22A13 [6]) [µM]
CCCCc1nc(Cl)c(CO)n1Cc1ccc(-c2ccccc2-c2nn[nH]n2)cc1 [LOS, losartan]	2.5	11.9				
O=C(O)CSc1nnc(Br)n1-c1ccc(C2CC2)c2ccccc12 [LU, lesinurad]			lesinurad inhibited OAT10 and URAT1 comparably	lesinurad inhibited OAT10 and URAT1 comparably		
O=C(c1cc(Cl)c(O)c(Cl)c1)N1CS(=O)(=O)c2ccccc21 [DU, dotinurad]				benzbromarone, 6-hydroxybenzbromarone, and dotinurad were more specific to URAT1 than OAT10	0.043	7.7
